# Test results taken from patent US20230301300A1, “HERBICIDAL COMPOSITIONS” (SYNGENTA CROP PROTECTION AG, priority 2020, published 2023).
# Columns and labels:
# Assay type in all cases: in vivo
# [1] = tested on: Amaranthus retoflexus (AMARE); assay: B1 Post-Emergence Efficacy - Test 1; conditions: 1000 g/ha, after 13 days, five point scale
# Procedure: (§1) Seeds of a variety of test species are sown in standard soil in pots:— Solanum nigrum (SOLNI), Amaranthus retoflexus (AMARE), Setaria faberi (SETFA), Alopecurus myosuroides (ALOMY), Echinochloa crus-galli (ECHCG), Ipomoea hederacea (IPOHE), Lolium perenne (LOLPE). After 8 days cultivation (post-emergence) under controlled conditions in a glasshouse (at 24/16° C., day/night; 14 hours light; 65% humidity), the plants are sprayed with an aqueous spray solution derived from the formulation of the technical active ingredient in acetone/water (50:50) solution containing 0.5% Tween 20 (polyoxyethylene sorbitan monolaurate, CAS RN 9005-64-5). Compounds are applied at 1000 g/ha. The test plants are then grown in a glasshouse under controlled conditions in a glasshouse (at 24/16° C., day/night; 14 hours light; 65% humidity) and watered twice daily. After 13 days, the test is evaluated for the percentage damage caused to the plant. The biological activities are assessed on a five point scale (5=80-100%; 4=60-79%; 3=40-59%; 2=20-39%; 1=0-19%). A blank value in the table is indicative that the compound was not tested on that species.
# [2] = tested on: Echinochloa crus-galli (ECHCG); assay: B1 Post-Emergence Efficacy - Test 1; conditions: 1000 g/ha, after 13 days, five point scale
# Procedure: as §1
# [3] = tested on: Ipomoea hederacea (IPOHE); assay: B1 Post-Emergence Efficacy - Test 1; conditions: 1000 g/ha, after 13 days, five point scale
# Procedure: as §1
# Lolium perenne (LOLPE) = assay: B1 Post-Emergence Efficacy - Test 1; conditions: 1000 g/ha, after 13 days, five point scale
# Procedure: as §1
# Setaria faberi (SETFA) [4] = assay: B1 Post-Emergence Efficacy - Test 1; conditions: 1000 g/ha, after 13 days, five point scale
# Procedure: as §1
# Solanum nigrum (SOLNI) = assay: B1 Post-Emergence Efficacy - Test 1; conditions: 1000 g/ha, after 13 days, five point scale
# Procedure: as §1
# [5] = tested on: Amaranthus retroflexus (AMARE); assay: B2 Post-Emergence Efficacy - Test 2; conditions: 15 days after application, 0-100 scale
# Procedure: (§2) Seeds of a variety of test species (see Table B1) were sown in standard soil in pots. After cultivation for 12 days (post-emergence) under controlled conditions in a glasshouse (at 24/18° C. or 20/16° C., at day/night; 16 hours light; 65% humidity), the plants were sprayed with an aqueous spray solution derived from the formulation of the technical active ingredient dissolved in IF50 (see Table B2 for composition) and adjuvant (Genapol X080) was added to the spray solution at a rate of 0.2% v/v.
# (§3) After application, the test plants were grown in a glasshouse under controlled conditions (as above) and watered twice daily. Herbicidal activity was evaluated 15 days after application on a 0-100 scale. The results, where 0=no damage to test plant and 100=total kill of test plant are shown below in Tables 8 to 11.
# Avena fatua (AVEFA) = assay: B2 Post-Emergence Efficacy - Test 2; conditions: 15 days after application, 0-100 scale
# Procedure: as §2, §3
# [6] = tested on: Brachiaria plantaginea (BRAPL); assay: B2 Post-Emergence Efficacy - Test 2; conditions: 15 days after application, 0=no damage, 100=total kill
# Procedure: as §2, §3
# Brassica napus (BRSNN) = assay: B2 Post-Emergence Efficacy - Test 2; conditions: 15 days after application, 0-100 scale
# Procedure: as §2, §3
# Bromus tectorum (BROTE) = assay: B2 Post-Emergence Efficacy - Test 2; conditions: 15 days after application, 0-100 scale
# Procedure: as §2, §3
# [7] = tested on: Chenopodium album (CHEAL); assay: B2 Post-Emergence Efficacy - Test 2; conditions: 15 days after application, 0-100 scale
# Procedure: as §2, §3
# Eleisine indica (ELEIN) = assay: B2 Post-Emergence Efficacy - Test 2; conditions: 15 days after application, 0=no damage, 100=total kill
# Procedure: as §2, §3
# Hordeum vulgare (HORVW) = assay: B2 Post-Emergence Efficacy - Test 2; conditions: 15 days after application, 0-100 scale
# Procedure: as §2, §3
# Kochia scoparia (KSHSC) = assay: B2 Post-Emergence Efficacy - Test 2; conditions: 15 days after application, 0-100 scale
# Procedure: as §2, §3
# Setaria faberi (SETFA) [8] = assay: B2 Post-Emergence Efficacy - Test 2; conditions: 15 days after application, 0=no damage, 100=total kill
# Procedure: as §2, §3
# Stellaria media (STEME) = assay: B2 Post-Emergence Efficacy - Test 2; conditions: 15 days after application, 0-100 scale
# Procedure: as §2, §3
# Zea mays (ZEAMX) = assay: B2 Post-Emergence Efficacy - Test 2; conditions: 15 days after application; for Herbicidal activity ZEAMX: 0-100 scale; for Herbicidal activity on a 0-100 scale, ZEAMX: 0=no damage, 100=total kill
# Procedure: as §2, §3
smiles,measurement,setting,value
"Cc1nn(C)c(=O)c(-c2c(F)ccc(Cl)c2CCc2ccc(C#N)cc2)c1O [Compound 1.024, 4-[3-chloro-6-fluoro-2-[2-[4-(cyano)phenyl]ethyl]phenyl]-5-hydroxy-2,6-dimethyl-pyridazin-3-one]","percentage damage caused to the plant, AMARE",[1],5 (5=80-100%)
same,"percentage damage caused to the plant, ECHCG",[2],5 (5=80-100%)
same,"percentage damage caused to the plant, IPOHE",[3],5 (5=80-100%)
same,"percentage damage caused to the plant, LOLPE",Lolium perenne (LOLPE),5 (5=80-100%)
same,"percentage damage caused to the plant, SETFA",Setaria faberi (SETFA) [4],5 (5=80-100%)
same,"percentage damage caused to the plant, SOLNI",Solanum nigrum (SOLNI),5 (5=80-100%)
same,Herbicidal activity AMARE,[5]; 15 g/Ha,80
same,Herbicidal activity AMARE,[5]; 30 g/Ha,90
same,Herbicidal activity AMARE,[5]; 60 g/Ha,90
same,Herbicidal activity AMARE,[5]; 125 g/Ha,100
same,Herbicidal activity AMARE,[5]; 250 g/Ha,100
same,Herbicidal activity AMARE,[5]; 500 g/Ha,100
same,Herbicidal activity AVEFA,Avena fatua (AVEFA); 15 g/Ha,10
same,Herbicidal activity AVEFA,Avena fatua (AVEFA); 30 g/Ha,20
same,Herbicidal activity AVEFA,Avena fatua (AVEFA); 60 g/Ha,30
same,Herbicidal activity AVEFA,Avena fatua (AVEFA); 125 g/Ha,60
same,Herbicidal activity AVEFA,Avena fatua (AVEFA); 250 g/Ha,70
same,Herbicidal activity AVEFA,Avena fatua (AVEFA); 500 g/Ha,80
same,"Herbicidal activity on a 0-100 scale, BRAPL",[6]; 15 g/Ha,30
same,"Herbicidal activity on a 0-100 scale, BRAPL",[6]; 30 g/Ha,60
same,"Herbicidal activity on a 0-100 scale, BRAPL",[6]; 60 g/Ha,70
same,"Herbicidal activity on a 0-100 scale, BRAPL",[6]; 125 g/Ha,70
same,"Herbicidal activity on a 0-100 scale, BRAPL",[6]; 250 g/Ha,70
same,"Herbicidal activity on a 0-100 scale, BRAPL",[6]; 500 g/Ha,90
same,Herbicidal activity BRSNN,Brassica napus (BRSNN); 15 g/Ha,80
same,Herbicidal activity BRSNN,Brassica napus (BRSNN); 30 g/Ha,90
same,Herbicidal activity BRSNN,Brassica napus (BRSNN); 60 g/Ha,90
same,Herbicidal activity BRSNN,Brassica napus (BRSNN); 125 g/Ha,90
same,Herbicidal activity BRSNN,Brassica napus (BRSNN); 250 g/Ha,90
same,Herbicidal activity BRSNN,Brassica napus (BRSNN); 500 g/Ha,90
same,Herbicidal activity BROTE,Bromus tectorum (BROTE); 15 g/Ha,0
same,Herbicidal activity BROTE,Bromus tectorum (BROTE); 30 g/Ha,0
same,Herbicidal activity BROTE,Bromus tectorum (BROTE); 60 g/Ha,10
same,Herbicidal activity BROTE,Bromus tectorum (BROTE); 125 g/Ha,20
same,Herbicidal activity BROTE,Bromus tectorum (BROTE); 250 g/Ha,40
same,Herbicidal activity BROTE,Bromus tectorum (BROTE); 500 g/Ha,70
same,Herbicidal activity CHEAL,[7]; 15 g/Ha,60
same,Herbicidal activity CHEAL,[7]; 30 g/Ha,90
same,Herbicidal activity CHEAL,[7]; 60 g/Ha,90
same,Herbicidal activity CHEAL,[7]; 125 g/Ha,90
same,Herbicidal activity CHEAL,[7]; 250 g/Ha,90
same,Herbicidal activity CHEAL,[7]; 500 g/Ha,100
same,"Herbicidal activity on a 0-100 scale, ELEIN",Eleisine indica (ELEIN); 15 g/Ha,0
same,"Herbicidal activity on a 0-100 scale, ELEIN",Eleisine indica (ELEIN); 30 g/Ha,40
same,"Herbicidal activity on a 0-100 scale, ELEIN",Eleisine indica (ELEIN); 60 g/Ha,40
same,"Herbicidal activity on a 0-100 scale, ELEIN",Eleisine indica (ELEIN); 125 g/Ha,60
same,"Herbicidal activity on a 0-100 scale, ELEIN",Eleisine indica (ELEIN); 250 g/Ha,80
same,"Herbicidal activity on a 0-100 scale, ELEIN",Eleisine indica (ELEIN); 500 g/Ha,80
same,Herbicidal activity HORVW,Hordeum vulgare (HORVW); 15 g/Ha,0
same,Herbicidal activity HORVW,Hordeum vulgare (HORVW); 30 g/Ha,10
same,Herbicidal activity HORVW,Hordeum vulgare (HORVW); 60 g/Ha,10
same,Herbicidal activity HORVW,Hordeum vulgare (HORVW); 125 g/Ha,10
same,Herbicidal activity HORVW,Hordeum vulgare (HORVW); 250 g/Ha,10
same,Herbicidal activity HORVW,Hordeum vulgare (HORVW); 500 g/Ha,20
same,Herbicidal activity KCHSC,Kochia scoparia (KSHSC); 15 g/Ha,0
same,Herbicidal activity KCHSC,Kochia scoparia (KSHSC); 30 g/Ha,0
same,Herbicidal activity KCHSC,Kochia scoparia (KSHSC); 60 g/Ha,0
same,Herbicidal activity KCHSC,Kochia scoparia (KSHSC); 125 g/Ha,10
same,Herbicidal activity KCHSC,Kochia scoparia (KSHSC); 250 g/Ha,10
same,Herbicidal activity KCHSC,Kochia scoparia (KSHSC); 500 g/Ha,20
same,"Herbicidal activity on a 0-100 scale, SETFA",Setaria faberi (SETFA) [8]; 15 g/Ha,20
same,"Herbicidal activity on a 0-100 scale, SETFA",Setaria faberi (SETFA) [8]; 30 g/Ha,70
same,"Herbicidal activity on a 0-100 scale, SETFA",Setaria faberi (SETFA) [8]; 60 g/Ha,80
same,"Herbicidal activity on a 0-100 scale, SETFA",Setaria faberi (SETFA) [8]; 125 g/Ha,90
same,"Herbicidal activity on a 0-100 scale, SETFA",Setaria faberi (SETFA) [8]; 250 g/Ha,90
same,"Herbicidal activity on a 0-100 scale, SETFA",Setaria faberi (SETFA) [8]; 500 g/Ha,100
same,Herbicidal activity STEME,Stellaria media (STEME); 15 g/Ha,90
same,Herbicidal activity STEME,Stellaria media (STEME); 30 g/Ha,90
same,Herbicidal activity STEME,Stellaria media (STEME); 60 g/Ha,90
same,Herbicidal activity STEME,Stellaria media (STEME); 125 g/Ha,90
same,Herbicidal activity STEME,Stellaria media (STEME); 250 g/Ha,90
same,Herbicidal activity STEME,Stellaria media (STEME); 500 g/Ha,100
same,Herbicidal activity ZEAMX,Zea mays (ZEAMX); 15 g/Ha,0
same,"Herbicidal activity on a 0-100 scale, ZEAMX",Zea mays (ZEAMX); 15 g/Ha,0
same,Herbicidal activity ZEAMX,Zea mays (ZEAMX); 30 g/Ha,10
same,"Herbicidal activity on a 0-100 scale, ZEAMX",Zea mays (ZEAMX); 30 g/Ha,10
same,Herbicidal activity ZEAMX,Zea mays (ZEAMX); 60 g/Ha,20
same,"Herbicidal activity on a 0-100 scale, ZEAMX",Zea mays (ZEAMX); 60 g/Ha,20
same,Herbicidal activity ZEAMX,Zea mays (ZEAMX); 125 g/Ha,40
same,"Herbicidal activity on a 0-100 scale, ZEAMX",Zea mays (ZEAMX); 125 g/Ha,40
same,Herbicidal activity ZEAMX,Zea mays (ZEAMX); 250 g/Ha,70
same,"Herbicidal activity on a 0-100 scale, ZEAMX",Zea mays (ZEAMX); 250 g/Ha,70
same,Herbicidal activity ZEAMX,Zea mays (ZEAMX); 500 g/Ha,100
same,"Herbicidal activity on a 0-100 scale, ZEAMX",Zea mays (ZEAMX); 500 g/Ha,100
